“And” between values parts separate entries of the source, which are not always exact repeats. Equal entries are not always repeated. Where two headings read alike, the source gives them in different places.
Experiments:
TaCDP = tested on: TaCDP; design: method as in PMID 28687766; settings: phosphorolytic reaction; cited from earlier work
BpSBPMLG = BpSBPMLG (Blautia producta, UniProt A0ABX6JB09); experiment: Isothermal titration calorimetry of oligosaccharide binding to BpSBPMLG; design: species or system Blautia producta ATCC 27340
Sequence of BpSBPMLG (A0ABX6JB09 entry or part of it): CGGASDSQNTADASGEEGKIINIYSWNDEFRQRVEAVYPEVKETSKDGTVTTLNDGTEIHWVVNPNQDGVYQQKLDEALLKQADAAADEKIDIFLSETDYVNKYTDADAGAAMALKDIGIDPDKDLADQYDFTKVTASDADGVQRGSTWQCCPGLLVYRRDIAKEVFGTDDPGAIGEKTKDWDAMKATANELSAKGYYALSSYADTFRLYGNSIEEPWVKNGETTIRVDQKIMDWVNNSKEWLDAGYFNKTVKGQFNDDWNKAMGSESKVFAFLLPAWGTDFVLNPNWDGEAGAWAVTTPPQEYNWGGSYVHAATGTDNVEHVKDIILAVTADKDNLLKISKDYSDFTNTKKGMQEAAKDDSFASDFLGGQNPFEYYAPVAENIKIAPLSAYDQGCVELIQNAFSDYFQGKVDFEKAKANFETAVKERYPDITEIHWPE
Method: The binding of β-(1,4), β-(1,3), and MLG-oligosaccharides to BpSBPMLG was measured at 25 °C in 10 mM sodium phosphate buffer (pH 7) using a MicroCal PEAQ-ITC (Malvern). The protein was extensively dialyzed against 10 mM sodium phosphate and all glycan ligands were also dissolved in the same buffer to minimize the heat of dilution. 13 injections of an oligosaccharide were titrated on BpSBPMLG present in the sample cell. Various preliminary titration setups were tried by changing amounts of protein (5–100 μM) and ligand (50 μM–10 mM) to get the best experimental conditions. Thermodynamic binding parameters [calculates binding affinity (Kd), stoichiometry (n), enthalpy (ΔH), Gibbs free energy change (ΔG), and entropy (ΔS)] were determined using the MicroCal PEAQ-ITC analysis software.

BpGH94MLG [1] = target: T1, BpGH94MLG (Blautia producta, UniProt A0A7G5MNS2); experiment: Phosphorolysis activity of BpGH94MLG on substrates (TLC); type: biochemical, Blautia producta ATCC 27340; settings: inorganic phosphate, 37 °C
T1 sequence (A0A7G5MNS2 1-804): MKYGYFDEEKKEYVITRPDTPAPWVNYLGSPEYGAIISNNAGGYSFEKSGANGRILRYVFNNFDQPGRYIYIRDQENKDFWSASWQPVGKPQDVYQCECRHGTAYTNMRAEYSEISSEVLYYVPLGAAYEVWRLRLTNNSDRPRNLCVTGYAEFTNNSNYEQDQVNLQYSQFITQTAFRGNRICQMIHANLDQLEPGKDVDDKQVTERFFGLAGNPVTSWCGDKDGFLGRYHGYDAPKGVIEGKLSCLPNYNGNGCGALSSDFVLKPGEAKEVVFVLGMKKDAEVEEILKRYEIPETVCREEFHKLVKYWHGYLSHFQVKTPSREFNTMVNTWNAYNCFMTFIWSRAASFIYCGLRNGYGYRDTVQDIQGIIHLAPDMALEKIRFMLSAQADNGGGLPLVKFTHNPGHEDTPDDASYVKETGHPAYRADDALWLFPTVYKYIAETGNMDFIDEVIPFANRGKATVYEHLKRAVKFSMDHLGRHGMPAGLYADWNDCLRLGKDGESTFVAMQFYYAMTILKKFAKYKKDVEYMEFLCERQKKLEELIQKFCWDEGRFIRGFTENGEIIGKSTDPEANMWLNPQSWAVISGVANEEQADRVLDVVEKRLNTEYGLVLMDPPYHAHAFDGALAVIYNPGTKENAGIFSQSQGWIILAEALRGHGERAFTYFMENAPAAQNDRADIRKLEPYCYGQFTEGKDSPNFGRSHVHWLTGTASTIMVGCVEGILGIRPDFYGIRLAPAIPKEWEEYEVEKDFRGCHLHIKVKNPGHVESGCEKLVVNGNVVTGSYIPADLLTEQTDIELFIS
Method: (§1) TLC was used for analyzing enzymatic actions. […] Kinetics parameters for BpGH94MLG were determined with G4G3G, G4G4G3G and cellotriose, following a p-hydroxybenzoic acid hydrazide (PAHBAH) reducing sugar assay ([69]).

BpGH16MLG = experiment: Initial screening of BpGH16MLG against substrates (TLC); type: biochemical, Blautia producta ATCC 27340; settings: pH 5.7, 37 °C, 2 h
Method: After the appropriate incubation time, the reaction was terminated by boiling (5 min), and generated oligosaccharides were analyzed by thin layer chromatography (TLC). Typically, 1 μl of the reaction mixture was used for TLC analysis. TLC analysis was performed on Silica Gel 60 F254 (Merck), and produced sugars were visualized by spraying TLC with 5% H2SO4 in ethanol, followed by heating.

BpGH3-AR8MLG = BpGH3-AR8MLG (Blautia producta, UniProt A0ABX6J8C8); type: biochemical, Blautia producta ATCC 27340; settings: for Km / kcat: PAHBAH assay, 100 mM HEPES pH 6.5, 37 °C
Sequence of BpGH3-AR8MLG (A0ABX6J8C8 entry or part of it): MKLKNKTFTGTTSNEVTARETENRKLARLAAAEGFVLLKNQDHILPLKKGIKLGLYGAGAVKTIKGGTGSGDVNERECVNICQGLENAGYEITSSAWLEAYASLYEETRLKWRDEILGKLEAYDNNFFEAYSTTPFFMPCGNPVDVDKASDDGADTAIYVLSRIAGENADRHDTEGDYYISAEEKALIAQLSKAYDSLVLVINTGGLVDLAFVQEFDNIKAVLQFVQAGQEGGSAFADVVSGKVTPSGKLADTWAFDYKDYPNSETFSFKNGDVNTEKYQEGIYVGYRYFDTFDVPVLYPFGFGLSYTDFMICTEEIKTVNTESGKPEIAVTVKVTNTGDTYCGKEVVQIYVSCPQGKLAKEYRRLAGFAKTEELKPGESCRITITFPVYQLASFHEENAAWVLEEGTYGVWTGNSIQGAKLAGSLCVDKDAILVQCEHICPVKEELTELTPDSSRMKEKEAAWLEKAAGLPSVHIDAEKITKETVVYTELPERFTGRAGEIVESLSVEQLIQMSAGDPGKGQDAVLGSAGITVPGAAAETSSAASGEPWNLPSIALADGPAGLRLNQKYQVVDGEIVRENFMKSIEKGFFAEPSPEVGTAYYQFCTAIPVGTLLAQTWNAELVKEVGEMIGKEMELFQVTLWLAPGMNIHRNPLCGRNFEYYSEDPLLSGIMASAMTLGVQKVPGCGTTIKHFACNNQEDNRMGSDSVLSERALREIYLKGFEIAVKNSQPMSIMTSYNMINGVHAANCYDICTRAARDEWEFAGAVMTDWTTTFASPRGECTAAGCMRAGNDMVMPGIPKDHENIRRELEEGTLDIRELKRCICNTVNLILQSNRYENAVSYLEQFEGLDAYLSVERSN
Method: (§2) 150 μl of a freshly prepared 8:2 mixture of reagent A (50 mM sodium sulfite, 0.3 M 4-hydroxybenzhydrazide and 0.6 M HCl) and reagent B (50 mM trisodium citrate, 10 mM CaCl2, 0.5 M NaOH) were added to 50 μl sample. The reaction cocktail was boiled for 10 min at 100 °C. After the reaction was cooled down, the absorbance was recorded at 410 nm using the SpectraMax i3x multi-mode microplate reader. A calibration curve with different concentrations of glucose (0, 2, 4, 8, 16, 40, 80, 100, 200, 300, and 500 μM) was employed for each experiment to calculate the released amount of glucose (reducing end equivalents). The same samples were also used for control measurement, and the control value was subtracted from test reading prior to calculate kinetics parameters. In all cases, the Km, Vmax, and kcat were analyzed on GraphPad Prism. Three independent replicates were used for each test. TLC analyses were used for understanding the enzymatic degradation profiles of various oligosaccharides.

BpGH3-X62MLG = target: T2, BpGH3-X62MLG (Blautia producta, UniProt A0ABX6JIM0); experiment: Hydrolysis kinetics of BpGH3-X62MLG (PAHBAH assay, TLC)
T2 sequence (A0ABX6JIM0 1-920): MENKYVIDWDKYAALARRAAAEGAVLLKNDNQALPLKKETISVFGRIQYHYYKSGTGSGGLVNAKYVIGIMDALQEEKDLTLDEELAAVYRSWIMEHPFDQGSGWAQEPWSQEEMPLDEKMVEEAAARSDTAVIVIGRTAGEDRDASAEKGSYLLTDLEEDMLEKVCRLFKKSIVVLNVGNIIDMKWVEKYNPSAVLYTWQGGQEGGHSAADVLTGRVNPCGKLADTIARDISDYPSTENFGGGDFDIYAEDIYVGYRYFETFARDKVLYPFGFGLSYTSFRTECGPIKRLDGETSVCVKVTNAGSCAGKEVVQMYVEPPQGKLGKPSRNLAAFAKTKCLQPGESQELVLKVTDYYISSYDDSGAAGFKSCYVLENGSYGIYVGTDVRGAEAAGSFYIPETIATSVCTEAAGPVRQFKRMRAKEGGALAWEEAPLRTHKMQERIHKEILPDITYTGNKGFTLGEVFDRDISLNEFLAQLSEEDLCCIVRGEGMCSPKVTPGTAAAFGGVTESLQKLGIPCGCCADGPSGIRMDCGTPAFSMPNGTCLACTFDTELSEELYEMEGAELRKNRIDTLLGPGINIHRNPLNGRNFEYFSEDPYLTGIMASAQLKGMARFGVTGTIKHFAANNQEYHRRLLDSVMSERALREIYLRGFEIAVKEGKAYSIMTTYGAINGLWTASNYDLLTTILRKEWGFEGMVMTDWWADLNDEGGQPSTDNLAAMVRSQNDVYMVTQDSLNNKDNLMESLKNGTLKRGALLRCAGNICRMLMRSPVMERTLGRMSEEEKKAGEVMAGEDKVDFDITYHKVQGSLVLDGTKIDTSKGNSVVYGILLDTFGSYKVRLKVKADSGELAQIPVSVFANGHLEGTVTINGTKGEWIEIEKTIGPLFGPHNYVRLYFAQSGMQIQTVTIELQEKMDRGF
Method: as §2

BpGH94MLG [2] = target: T1, BpGH94MLG; experiment: Phosphorolysis kinetics of BpGH94MLG (PAHBAH assay); type: biochemical, Blautia producta ATCC 27340
Method: as §1

BpGH16MLG (BPGH16) = experiment: Michaelis-Menten kinetics of BpGH16MLG on β-glucans (DNS assay); type: biochemical, Blautia producta ATCC 27340; settings: native BPGH16; DNS assay; pH 5.7, 37 °C
Method: Then, reactions were terminated by boiling for 5 min. Enzymatic assays were determined with 3,5- dinitrosalicylic acid (DNS) assay ([85]). In brief, 0.05 g Na2SO3 and 1 g DNS were mixed in a 50 ml water-containing reagent bottle and stirred about 6 h using a magnetic stirrer. After that, 200 μl phenol was added and made up to 100 ml. A working solution of DNS was prepared by adding 50 μl glucose (20% (w/v) stock) in prepared 100 ml of reagent mixtures and immediately used for experiments without adding NaOH. 80 μl DNS reagent was added to the reaction mixtures and incubated at 100 °C for 10 min, followed by ice-cooling for 10 min. Consequently, recorded the developed color spectrophotometrically at 575 nm ([85]). A standard curve generated by different concentrations of maltose was used for determining released reducing sugars in each case.

[3] = ITC at 25 °C, 10 mM sodium phosphate pH 7.0

## O=C[C@H](O)[C@@H](O)[C@H](O[C@@H]1O[C@H](CO)[C@@H](O)[C@H](O)[C@H]1O)[C@H](O)CO [Cellobiose]
TaCDP
  Km: 120 µM
  kcat: 0.23 s⁻¹
BpSBPMLG
  Kd: 30.6 µM
BpSBPMLG; ITC
  binding to BpSBPMLG (in words): some affinity
BpSBPMLG; [3]
  -TΔS^0: 3.3 kJ/mol
  n (binding stoichiometry): 0.78± 0.18
  ΔG^0: -25.9 kJ/mol
  ΔH: -29.3 ± 9.2 kJ/mol
BpGH94MLG [1]
  phosphorolysis activity of BpGH94MLG (in words): did not show any phosphorolysis activity
BpGH16MLG
  activity of BpGH16MLG on substrate (initial screening): did not show activity
BpGH3-AR8MLG
  Km: 200 ± 30 µM
  kcat: 8 ± 0.1 s⁻¹

## OC[C@H]1O[C@@H](O[C@H]2[C@H](O)[C@@H](O)[C@H](O[C@H]3[C@H](O)[C@@H](O)[C@H](O[C@H]4[C@H](O)[C@@H](O)C(O)O[C@@H]4CO)O[C@@H]3CO)O[C@@H]2CO)[C@H](O)[C@@H](O)[C@@H]1O (some centres unmarked) [Cellotetraose]
BpSBPMLG
  Kd: 0.75 µM
BpSBPMLG; [3]
  -TΔS^0: 34.5 kJ/mol
  n (binding stoichiometry): 0.45 ± 0.02
  ΔG^0: -34.9 kJ/mol
  ΔH: -69.5 ± 3.14 kJ/mol
BpSBPMLG; ITC at 25 °C, 10 mM sodium phosphate pH 7.0, listed as cellotetraose
  n (binding stoichiometry): 0.45
BpGH3-AR8MLG
  Km: 470 ± 60 µM
  kcat: 20 ± 0.2 s⁻¹

## OC[C@H]1O[C@@H](O[C@H]2[C@H](O)[C@@H](O)[C@H](O[C@H]3[C@H](O)[C@@H](O)[C@H](O[C@H]4[C@H](O)[C@@H](CO)OC(O)[C@@H]4O)O[C@@H]3CO)O[C@@H]2CO)[C@H](O)[C@@H](O)[C@@H]1O (stereo partly drawn) [G4G4G3G, Glc-β-1-4-Glc-β-1-4-Glc-β-1-3-Glc]
BpSBPMLG
  Kd: 5.14 µM
BpSBPMLG; [3]
  -TΔS^0: 23.8 kJ/mol
  Kd: 5.14 µM
  n (binding stoichiometry): 0.77 and 0.77 ± 0.02
  ΔG^0: -30.2 kJ/mol
  ΔH: -54 ± 3.56 kJ/mol
BpGH3-X62MLG; PAHBAH assay, 100 mM HEPES pH 6.5, 37 °C
  kcat: 18 ± 0.3 s⁻¹
BpGH3-X62MLG; TLC
  cleavage by BpGH3-X62MLG (in words): cleaved
BpGH94MLG [2]
  Km fold-change: ~0.75 fold
  kcat/Km higher compared to G4G3G: 1.6 fold
  kcat/Km higher compared to cellotriose: 2.4 fold
BpGH3-AR8MLG; TLC
  cleavage by BpGH3-AR8MLG (in words): cleaved

## OC[C@H]1O[C@@H](O[C@H]2[C@H](O)[C@@H](CO)OC(O)[C@@H]2O)[C@H](O)[C@@H](O)[C@@H]1O (some centres unmarked) [Laminaribiose]
BpSBPMLG
  Kd: 22.1 µM
BpSBPMLG; ITC
  binding to BpSBPMLG (in words): some affinity
BpSBPMLG; [3]
  n (binding stoichiometry): 1.03 ± 0.02
  ΔG^0: -26.6 kJ/mol
  ΔH: -13.1 ± 0.669 kJ/mol
BpGH94MLG [1]
  phosphorolysis activity of BpGH94MLG (in words): did not show any phosphorolysis activity
BpGH16MLG
  activity of BpGH16MLG on substrate (initial screening): did not show activity
BpGH3-AR8MLG
  Km: 240 ± 30 µM
  kcat: 12 ± 0.2 s⁻¹

## OC[C@H]1O[C@@H](O[C@@H]2[C@@H](O)[C@H](O[C@@H]3[C@@H](O)[C@H](O[C@H]4[C@H](O)[C@@H](CO)OC(O)[C@@H]4O)O[C@H](CO)[C@H]3O)O[C@H](CO)[C@H]2O)[C@H](O)[C@@H](O)[C@@H]1O (some centres unmarked) [Laminaritetraose]
BpSBPMLG; [3]
  -TΔS^0: 22.1 kJ/mol
  ΔH: -0.628 ± 0.502 kJ/mol
BpSBPMLG; ITC, read-out: Kd
  Kd: 5600 µM

## OC[C@H]1O[C@@H](O[C@@H]2[C@@H](O)[C@H](O[C@H]3[C@H](O)[C@@H](CO)OC(O)[C@@H]3O)O[C@H](CO)[C@H]2O)[C@H](O)[C@@H](O)[C@@H]1O (some centres unmarked) [Laminaritriose]
BpSBPMLG
  Kd: 3.41 µM
BpSBPMLG; [3]
  -TΔS^0: 15.9 kJ/mol
  n (binding stoichiometry): 0.9 ± 0.01
  ΔG^0: -31.2 kJ/mol
  ΔH: -15.3 ± 0.084 kJ/mol
BpGH94MLG [1]
  phosphorolysis activity of BpGH94MLG (in words): did not show any phosphorolysis activity
BpGH16MLG
  activity of BpGH16MLG on substrate (initial screening): did cleave

## OC[C@H]1O[C@@H](O[C@H]2[C@H](O)[C@@H](O)[C@H](O)O[C@@H]2CO)[C@H](O)[C@@H](O)[C@H]1O [lactose]
BpSBPMLG; ITC
  binding to BpSBPMLG (in words): no detectable affinity

## OC[C@H]1O[C@H](O[C@H]2[C@H](O)[C@@H](O)[C@H](O)O[C@@H]2CO)[C@H](O)[C@@H](O)[C@@H]1O [maltose]
BpSBPMLG; ITC
  binding to BpSBPMLG (in words): no detectable affinity
BpGH94MLG [1]
  phosphorolysis activity of BpGH94MLG (in words): did not show any phosphorolysis activity
BpGH16MLG
  activity of BpGH16MLG on substrate (initial screening): did not show activity

## OC[C@H]1O[C@@](CO)(O[C@H]2O[C@H](CO)[C@@H](O)[C@H](O)[C@H]2O)[C@@H](O)[C@@H]1O [sucrose]
BpGH94MLG [1]
  phosphorolysis activity of BpGH94MLG (in words): did not show any phosphorolysis activity
BpGH16MLG
  activity of BpGH16MLG on substrate (initial screening): did not show activity

## Gentiobiose
BpSBPMLG; ITC
  binding to BpSBPMLG (in words): no detectable affinity
BpGH94MLG [1]
  phosphorolysis activity of BpGH94MLG (in words): did not show any phosphorolysis activity
BpGH16MLG
  activity of BpGH16MLG on substrate (initial screening): did not show activity

## Oat β-glucan
BpGH16MLG (BPGH16)
  Km: 0.32 ± 0.05 mg/mL
  kcat: 46 ± 0.8 s⁻¹
BpGH16MLG
  activity of BpGH16MLG on substrate (initial screening): did cleave

## lentinan
BpGH16MLG
  activity of BpGH16MLG on substrate (initial screening): did cleave

## yeast β-glucan
BpGH16MLG
  activity of BpGH16MLG on substrate (initial screening): did cleave

Source: publication PMC10318527, “Utilization of dietary mixed-linkage β-glucans by the Firmicute Blautia producta” (The Journal of Biological Chemistry, 2023)
